In patent publication EP0140395A1, “Water soluble derivatives of 1-(2-hydroxyethyl)-2-methyl-5-nitro-imidazole having therapeutical activity, process for its preparation and related pharmaceutical compositions” (Pietro Isnardi & C. Spa, priority 1983, dated 1985):
≈ marks a conversion by molar mass, not a printed value.

Tests used:
[1] = Solubility of the compound; format: physicochemical
Trichomonas vaginalis = test: Minimum inhibiting concentration in five strains, in comparison with metronidazole; format: cell-based; conditions: for MIC: average over five strains of Trichomonas vaginalis, metronidazole as 1 mg/ml solution in dimethyl sulfoxide, compound of the invention as 1 mg/ml water solution
Protocol: The minimum inhibiting concentration (MIC) was investigated in five strains of Trichomonas vaginalis, in comparison with metronidazole.
Metronidazole was tested in form of a solution in dimethyl sulfoxide at a concentration of 1 mg/ml whereas the compound of the invention was tested in form of a water solution at a concentration of 1 mg/ml.

[2] = Toxicity (LD50) in the rat; conditions: in vivo
Text: (§1) The compound of the invention has been pharmacologically tested.
(§2) As regards the toxicity the following results were found: […]

Kinetic tests in the rat = format: in vivo
[3] = Toxicity (LD50) in the mouse; conditions: in vivo
Text: as §1, §2

SMILES | solubility in anhydrous alcohols, acetone and chloroform ([1]; anhydrous alcohols, acetone and chloroform) | solubility in water ([1]; water) | MIC (Trichomonas vaginalis) | microbiological activity (Trichomonas vaginalis; preliminary tests, compared with metronidazole) | LD50 ([2]; ip) | LD50 ([2]; po, per os) | conversion into metronidazole (Kinetic tests in the rat; in the organism and in acidic environment) | dose excreted (Kinetic tests in the rat; urine, after parenteral administration, read-out: urinary excretion) | LD50 ([3]; ip) | LD50 ([3]; po, per os)
Cc1ncc([N+](=O)[O-])n1CCOC(=O)NCCCCC(N)C(=O)O (centres unmarked) [compound of the invention, N-(5-carboxy-5-aminopentan)-carbamic ester of 1-(2-hydroxyethyl)-2-methyl-5-nitro-imidazole] | insoluble | perfectly soluble in water | 2.5 µg/mL (≈ 7.28 µM) | greater microbiological activity | 870 mg/kg | 1620 mg/kg | not converted into metronidazole neither in the organism nor in acidic environnment | < 30% | > 4000 mg/kg | > 4000 mg/kg
Cc1ncc([N+](=O)[O-])n1CCO [metronidazole, 1-(2-hydroxyethyl)-2-methyl-5-nitro-imidazole] | – | – | 5 µg/mL (≈ 29.2 µM) | – | – | – | – | – | – | –
